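How tested: cells in 96-well plates exposed to compound for 48 hours at five concentrations. At the GI50, growth is halved. TGI: concentration producing complete growth inhibition.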

This note sets out measurements from PubChem BioAssay (NCI).

Some test systems named below: DMS 114 small cell lung; DMS 273 small cell lung; EKVX NSCLC; HOP-62 NSCLC; KM20L2 colon; LXFL 529 NSCLC; M19-MEL melanoma; NCI-H460 lung; SNB-78 CNS; UACC-62 melanoma; XF 498 CNS; DLD-1 colon.
Common to all, as to assay: DTP human tumour cell line panel, 48 h

As a reminder, the TGI is the concentration at which net growth stops. Read a high TGI as lower sensitivity of the cells. As for `CCCN(CCC)C1=Nc2ccccc2-n2cnnc2C1`, the concentration for total growth inhibition (TGI) in the experiment on DMS 114 small cell lung, in the experiment on DMS 273 small cell lung, in the experiment with EKVX NSCLC, in the experiment on HOP-62 NSCLC, in the experiment with KM20L2 colon and with LXFL 529 NSCLC was above 100 µM each time. For the same compound, the total growth inhibition concentration (TGI) with M19-MEL melanoma, with NCI-H460 lung, in the experiment with SNB-78 CNS, with UACC-62 melanoma and with XF 498 CNS was above 100 µM throughout.
For the compound `COc1ccc(-c2cc(=O)c3c(O)cc(O)cc3o2)c(OC)c1OC`, the TGI in the experiment on DLD-1 colon, with DMS 114 small cell lung, with EKVX NSCLC, with HOP-62 NSCLC, in the experiment on KM20L2 colon and with LXFL 529 NSCLC was above 100 µM each time. For the same compound, the TGI with M19-MEL melanoma, in the experiment with UACC-62 melanoma and in the experiment with XF 498 CNS was above 100 µM throughout.
For the compound `COc1cc(C=O)cc(O)c1O`, the total growth inhibition concentration (TGI) in the experiment with DLD-1 colon, in the experiment on DMS 114 small cell lung, in the experiment on DMS 273 small cell lung, with EKVX NSCLC, with HOP-62 NSCLC and in the experiment with KM20L2 colon was above 100 µM in each case. The TGI in the experiment on LXFL 529 NSCLC, in the experiment with M19-MEL melanoma, in the experiment with NCI-H460 lung, in the experiment on SNB-78 CNS and in the experiment with UACC-62 melanoma was above 100 µM in each case.
For the compound `CN(C(=O)c1ccc(OCCCC(=O)O)c(Cl)c1Cl)C1CCCC1`, the TGI in the experiment on DLD-1 colon, in the experiment with DMS 114 small cell lung, with DMS 273 small cell lung, in the experiment on EKVX NSCLC, with HOP-62 NSCLC and with KM20L2 colon was above 100 µM in each case. Moreover, the TGI was above 100 µM in the experiment on M19-MEL melanoma; above 100 µM in the experiment with NCI-H460 lung; above 100 µM with SNB-78 CNS; above 100 µM in the experiment with UACC-62 melanoma; 85.2 µM with XF 498 CNS.
One may read the GI50 as the concentration giving 50% growth inhibition. With `O=c1c([OH2+])c(-c2ccc(O)cc2[O-])oc2cc(O)cc([O-])c12.O=c1c([OH2+])c(-c2ccc(O)cc2[O-])oc2cc(O)cc([O-])c12.[Ti+4]`, the GI50 in the experiment on DLD-1 colon, with DMS 114 small cell lung, in the experiment with DMS 273 small cell lung, with KM20L2 colon, in the experiment on LXFL 529 NSCLC and in the experiment on M19-MEL melanoma was above 100 µM throughout. Also, the GI50 in the experiment with SNB-78 CNS and with UACC-62 melanoma was above 100 µM throughout. Also, the TGI with DLD-1 colon, with DMS 114 small cell lung, with DMS 273 small cell lung, in the experiment with EKVX NSCLC, in the experiment with HOP-62 NSCLC and in the experiment with KM20L2 colon was above 100 µM each time. In addition, the TGI in the experiment on LXFL 529 NSCLC, in the experiment with M19-MEL melanoma, in the experiment on NCI-H460 lung, in the experiment on SNB-78 CNS and in the experiment with UACC-62 melanoma was above 100 µM each time.
As for `CCOC(=O)C1(Br)S(=O)(=O)OCCOS1(=O)=O`, the TGI in the experiment with DLD-1 colon, with DMS 114 small cell lung, with DMS 273 small cell lung, in the experiment on EKVX NSCLC, in the experiment on HOP-62 NSCLC and in the experiment on KM20L2 colon was above 100 µM throughout. Also, the TGI with M19-MEL melanoma, with NCI-H460 lung, with SNB-78 CNS, in the experiment with UACC-62 melanoma and with XF 498 CNS was above 100 µM each time.
With `CN(C(=O)c1ccco1)C(=S)N1CCN(c2ccccn2)CC1`, the concentration for total growth inhibition (TGI) in the experiment with DLD-1 colon, in the experiment on DMS 273 small cell lung, in the experiment on HOP-62 NSCLC, in the experiment on KM20L2 colon, with LXFL 529 NSCLC and in the experiment on M19-MEL melanoma was above 100 µM throughout. Further, the TGI in the experiment on NCI-H460 lung, in the experiment with SNB-78 CNS, with UACC-62 melanoma and with XF 498 CNS was above 100 µM throughout.
With `CCCCCCCCOC(=O)c1cc([N+](=O)[O-])c(Sc2ncnc3nc[nH]c23)c([N+](=O)[O-])c1`, the TGI amounted to 2.94 µM in the experiment with DLD-1 colon; 1.81 µM with DMS 114 small cell lung; 1.57 µM in the experiment with DMS 273 small cell lung; 26.8 µM in the experiment with EKVX NSCLC; 21.8 µM in the experiment on HOP-62 NSCLC; 9.22 µM in the experiment on KM20L2 colon. Besides, the TGI in the experiment on M19-MEL melanoma was determined as 12.9 µM; in the experiment on NCI-H460 lung, 17.4 µM; in the experiment with SNB-78 CNS, 10.5 µM; with UACC-62 melanoma it was 17 µM; with XF 498 CNS it was 2.24 µM.
As to `O=c1c2c(c1=O)-c1ccccc1CN2`, the concentration for total growth inhibition (TGI) with DLD-1 colon, in the experiment with DMS 114 small cell lung, in the experiment with DMS 273 small cell lung, in the experiment with EKVX NSCLC, with HOP-62 NSCLC and with KM20L2 colon was above 100 µM in each case. Also, the concentration for total growth inhibition (TGI) in the experiment with LXFL 529 NSCLC, in the experiment with M19-MEL melanoma, in the experiment with NCI-H460 lung, with SNB-78 CNS, in the experiment with UACC-62 melanoma and in the experiment on XF 498 CNS was above 100 µM throughout.
In the case of `COC(=O)C1C=CCON2CCc3c(n(S(=O)(=O)c4ccccc4)c4ccccc34)C12` (stereo unspecified), the TGI in the experiment on DLD-1 colon was above 22.8 µM; with DMS 114 small cell lung it was above 87.7 µM; in the experiment on DMS 273 small cell lung, above 66.2 µM; in the experiment with EKVX NSCLC, above 84.8 µM; with HOP-62 NSCLC, above 55.5 µM; in the experiment on KM20L2 colon, above 63.2 µM. Further, the TGI in the experiment on LXFL 529 NSCLC is above 100 µM; with M19-MEL melanoma, above 70.5 µM; in the experiment with NCI-H460 lung, above 92.3 µM; in the experiment on SNB-78 CNS it was above 100 µM; with UACC-62 melanoma, above 62.5 µM.
